Where two headings read alike, the source gives them in different places.
Legend:
[1] = test system: Pkd1−/− mouse inner medullary collecting duct cells (mIMRFNPKD 5E4); assay: mPKD 3D cyst swelling assay (forskolin-induced); format: cell-based; settings: after 72 hours of forskolin exposure
Experimental: Cell model and control compounds. mIMCD3 WT cells were obtained via ATCC and modified to create the mIMRFNPKD 5E4 cell line, which has a CRISPR-Cas mediated knockout for Pkd1 as described SLAS Discov. 2017 September; 22(8):974-984. doi: 10.1177/2472555217716056. Cells were cultured in DMEM/F12 (Sigma)+10% FBS (Sigma)+0.5% Pen/Strep (Gibco)+1% GluMax (Gibco). Control compounds used were forskolin (Calbiochem, 344282), Rapamycin (Selleckchem, S1039) and Staurosporin (Selleckchem, S1421).
The 3D mouse cyst swelling assay was performed with Pkd1^−/− mouse inner medullary collecting duct cells (mIMRFNPKD 5E4). The cyst swelling protocol that was used was described previously (SLAS Discov. 2017 September; 22(8):974-984. doi: 10.1177/2472555217716056), with further optimization.
3D culture and compound exposure. mIMRFNPKD 5E4 cells were mixed with Cyst-Gel (OcellO BV). 15 μL of cell-gel mix was pipetted to 384-well plates (Greiner μClear, Greiner Bio-One B.V.) using a CyBio Felix 96/60 robotic liquid dispenser (Analyik Jena AG). Gel-cell mix was plated at a final cell density of 2250 cells per well. After gel polymerization at 37° C. for 30 minutes, 33 μL culture medium was added to each well. Cells were grown in the gel for 96 hours, after which the cells were co-exposed with forskolin (Calbiochem, 344282) and one the following molecules: reference compound Rapamycin (SelleckChem, S1039), toxic control compound Staurosporin (SelleckChem, S1421) or test compounds.
Sample processing. After 72 hours, cultures were fixed with 4% Formaldehyde (Sigma Aldrich) and simultaneously permeabilized with 0.2% Triton-X100 (Sigma Aldrich) and stained with 0.25 μM rhodamine-phalloidin (Sigma Aldrich) and 0.1% Hoechst 33258 (Sigma Aldrich) in 1×PBS (Sigma Aldrich) for 2 days at 4° C., protected from light. After fixation and staining, plates were washed with 1×PBS, sealed with a Greiner SilverSeal (Greiner Bio-One B.V.) and stored at 4° C. prior to imaging.
Imaging and image analysis. Imaging was done using Molecular Devices ImageXpress Micro XLS (Molecular Devices) with a 4× NIKON objective. For each well around 35 images in the Z-direction were made for both channels, capturing the whole z-plane in each image. Image analysis was performed using Ominer™ software (OcellO BV). Cysts were segmented using detection of Hoechst-stained nuclei and Rhodamine-phalloidin-stained cellular f-actin. Cyst area was determined by calculating for the area in px of each object in every in-focus plain. This was averaged per well. (N represented is number of wells) Fraction of apoptotic nuclei as an indicator of toxicity was calculated as the amount of nuclei without actin signal relative to the total amount of nuclei, both as count-measurements. Statistics was done using KNIME Analytics Platform (Konstanz, Germany, http://www.knime.org/), graphs were prepared in GraphPad Prism 6 (GraphPad Software, La Jolla, Calif.).

HepG2 cells [2] = assay: Glucose uptake (Glucose Uptake-Glo); format: cell-based; settings: Homo sapiens, 50 uM, read-out: % increase in Glucose Uptake
[3] = test system: Peripheral blood mononuclear cells co-cultured with B-cells (BT system); assay: cells; settings: Homo sapiens, 72 h, read-out: % increase in sIL-6
[4] = test system: Coronary artery smooth muscle cells (CASM3C system); assay: BioMAP CASM3C system (IL-1β, TNFα, IFNγ); format: cell-based, human; settings: 10 uM
[5] = test system: Bronchial epithelial cells co-cultured with dermal fibroblast (BF4T system); assay: BioMAP BF4T system (TNFα and IL-4); format: cell-based, human; settings: Homo sapiens, 24 h; 10 uM; procedure of Example 830; read-out: % increase in VCAM-1
[6] = test system: Venular Endothelial cells (HUVEC) (4H system); assay: BioMAP 4H system (IL-4 and histamine); format: cell-based, human; settings: Homo sapiens, HUVEC, 24 h; 1 uM; procedure of Example 826; read-out: % decrease in VEGFRII
[7] = test system: Peripheral blood mononuclear cells co-cultured with venular endothelial cells (HUVEC) (LPS system); assay: BioMAP LPS system; format: cell-based, human; settings: procedure of Example 827
[8] = test system: Peripheral blood mononuclear cells co-cultured with B-cells (BT system); settings: 1 uM; procedure of Example 829
[9] = test system: Dermal fibroblasts (HDF3CGF system); assay: BioMAP HDF3CGF system (IL-1β, TNFα, IFNγ, EGF, bFGF, PDGF-BB); format: cell-based, human
[10] = test system: primary fibroblasts (healthy controls and PA, MMA, BCKDK, PDH, VLCAD, LS, PC, GA, VLCFA, KSS, FXN, HD); assay: Measurement of ROS (H2DCFDA) in primary fibroblasts; format: cell-based, human; settings: Homo sapiens, procedure Example 812, Assay Condition C, read-out: Decreased ROS by at least 10%
Summary of the method: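 Patient and healthy-control primary fibroblasts switched to supplemented DMEM 24 h before assay, then treated with compound (10 μM) plus H2DCFDA (22 μM) for 2 h (PA, MMA lines) or 24 h (other lines). Kinetic fluorescence at 492/527 nm over 60 min; only live cells analysed.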

[11] = test system: oligodendrocyte precursor cells (OPC) in mixed brain cultures; assay: Oligodendrocyte precursor cells (OPC) proliferation, O4+ cell count; format: cell-based, mouse; settings: 10 uM
Experimental: The effect of compounds of the present disclosure was determined on oligodendrocyte precursor cells proliferation (OPC).
Cell culture. Brains of wild type mice (whole brain from 1 or 2 mouse pups) less than postnatal day (P) 2 were isolated and cultured. Briefly, following removal of the meninges, cells were dissociated with 0.25% EDTA/CMF-DMEM and 1% Trypsin (1:1), plated at a density of 75,000 cells/on 0.1 mg/ml poly-L-lysine coated borosilicate glass coverslips in 24-well plates, grown in OPC differentiation media (Oligo media) consisting of DMEM/F12 (Invitrogen 21331-020) supplemented with 1% FBS, 1% N2 Neural Supplement (Invitrogen 17502-048) and PDGF receptor alpha growth factor (Invitrogen 17502-048). Cells were fed every other day and allowed to grow for 7 days in vitro (DIV).
OPCs treatment with compounds of the present disclosure. Cells were treated with compounds of the present disclosure (50-10 μM) or vehicle (0.1% DMSO) starting at 7 DIV. Media was replaced daily with freshly made working solutions of compounds or vehicle for either 48 h (9 DIV total) or 96 h (11 DIV). The 48 h group consisted of 1 coverslip per condition. The 96 h group was treated in duplicate.
Fresh aliquots of compounds of the present disclosure were made up on the day of treatment, briefly, a 50 mM stock was thawed and used to make up fresh 50 μM working solution in Oligo Media. The fresh 50 μM working solution was diluted further in Oligo Media to make 10 μM working solution. Vehicle controls was made up in fresh Oligo Media using the appropriate amount of vehicle (DMSO). Coverslips were stored in clean 24-well plates at 4° C. until fixed-staining. Cells were imaged using Leica DM5500 fluorescent microscope with LAS-X software.
Exposure settings were maintained at the same rate across compounds of the same time-point. Cells were imaged at 20× and 40× magnifications. At least 5 images were taken per condition. Most conditions had at least 5 images that were counted. 20× images were utilized for counting DAPI (cell nuclei) and O4+ cells.
Total DAPI per image for all images was counted using ImageJ as here indicated. • Image was converted to 8 bit • Blue Channel (DAPI) was automatically thresholded by default ImageJ settings • Image noise was reduced by ImageJ>Process>Noise>Despeckle • ImageJ>Process>Binary>Watershed was used to automatically separate merged cell nuclei • ImageJ>Analyze>Analyze Particles was used to obtain final count of DAPI per image • Total number of DAPI-positive cells
Total number of O4+ cells per 20× image was manually counted using Adobe Photoshop: • All cell bodies of OPCs with underlying DAPI stain were counted as an O4+ cell • Total number of O4+ cells were recorded in Excel Spreadsheet O4+ cells in mixed brain cultures of wild type mice <P2 treated with compounds of the present disclosure or vehicle were quantified per condition (time point and concentration). The following formula was used to normalize the total cell counts within a compound as well as across compounds treated for the same duration (48h vs. 96h):
(number of O4+cell counts in Compound X/Average DAPI count for Compound X)*Total Average DAPI count across compounds of same Time Point
Values were plotted as Scatter Interval plots in Origin. Each data point represents a single image from which O4+ cell values were obtained. Data are presented as mean±S.E.
Images are at 20× magnification and represent 1-2 coverslips per group. Scale bar, 50 μm.

HepG2 cells [12] = assay: Mitochondrial membrane potential (MITO-ID MP detection Kit); format: cell-based; settings: Homo sapiens, 168 h, 10 uM, 7 days, read-out: % decrease in Mitochondrial Membrane Potential
Summary of the method: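 Cells plated at 160000 cells/mL in DMEM with 10% FBS and 1% Pen-Strep, adhered overnight at 37° C., 5% CO2. Exposure to test compounds (50-10 μM) or 0.2% DMSO for 7 days without media change; membrane potential measured with MITO-ID MP detection kit per manufacturer.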

HepG2 cells [13] = assay: MitoBiogenesis In-Cell ELISA (COX-I, SDH-A); format: cell-based; settings: Homo sapiens, 168 h, 50 uM, 7 days, read-out: % increase in Mitochondrial Biogenesis
From the text: We determined the effect of compounds of the present disclosure on the levels of two mitochondrial proteins using MitoBiogenesis™ In-Cell ELISA Kit (Abcam ab110216) according to manufacturer's instructions. The two proteins are each subunits of a different oxidative phosphorylation enzyme complex, one protein being subunit I of Complex IV (COX-1), which is mitochondrial (mt)DNA-encoded, and the other being the 70 kDa subunit of Complex II (SDH-A), which is nuclear (n)DNA-encoded. Complex IV includes several proteins which are encoded in the mitochondrion, while the proteins of Complex II are entirely encoded in the nucleus. HepG2 cells (ATCC, HB-8065) were cultured (5% CO2 at 37° C.) and plated in Poly-D-Lysine 384-Well plate (Corning, 356663) at a density of 40,000 cells/mL in 50 μL. Culture and assay media consisted of DMEM (Gibco, 11995-065) supplemented with 1% Penicillin-Streptomycin and 10% FBS (Hyclone, SV30087.03). Cells were allowed to settle for 30 min at room temperature and further incubated overnight (37° C. and 5% CO2) for adherence. Next day, 50-5 μM of the negative control Chloramphenicol (Selleck, S1677), test compounds (50-10 μM) and vehicle DMSO (0.2%) were added at the recommended volumes to the 384-well plate for 7 days without media change using a Tecan compound dispenser. All the solutions and wash buffers were prepared and dispensed according to manufacturer's volumes for a 384-well plate format. Effects of compounds on mtDNA-encoded protein expression (COX-I) and nuclear DNA-encoded mitochondrial protein expression (SDH-A) were expressed as relative signal (nm) to vehicle of a n=2 per conditions.

SMILES: COC(=O)CCC(=O)CC(=O)SCCNC(=O)CCNC(=O)[C@H](O)C(C)(C)COC(C)=O [Compound 141, methyl 6-[(2-[3-[(2R)-4-(acetyloxy)-2-hydroxy-3,3-dimethylbutanamido]propanamido]ethyl)sulfanyl]-4,6-dioxohexanoate]
- % prevention of forskolin-induced cyst swelling ([1]; 50 uM): ≥10%
- activation at 50 µM (HepG2 cells [2]): ≥ 30%
- activation at 1 µM [3]: ≥ 20%
- % increase in Proliferation ([4]; procedure of Example 832): ≥10%
- inhibition at 10 µM ([4]; Homo sapiens, 24 h, read-out: % decrease in Thrombomodulin): ≥ 10%
- activation at 10 µM [5]: ≥ 20%
- inhibition at 1 µM [6]: ≥ 20%
- % decrease in M-CSF ([7]; 1 uM): ≥10%
- inhibition at 10 µM ([7]; Homo sapiens, HUVEC, 24 h, 10 uM, read-out: % decrease in sPGE2): ≥ 10%
- activation at 10 µM ([7]; Homo sapiens, HUVEC, 24 h, 10 uM, read-out: % increase in sTNFα): ≥ 10%
- % decrease in B-cell proliferation [8]: ≥10%
- % decrease in Collagen I ([9]; 1 uM, procedure of Example 833): ≥10%
- % increase in SRB ([9]; 10 uM): ≥10%
- inhibition at 1 µM ([9]; Homo sapiens, Fibroblast, 24 h, 1 uM, read-out: % decrease in Collagen III): ≥ 10%

SMILES: COC(=O)/C=C/C(=O)SCCNC(=O)CCNC(=O)[C@H](O)C(C)(C)CO [Compound 20, Methyl (R,E)-4-((2-(3-(2,4-dihydroxy-3,3-dimethylbutanamido)propanamido)ethyl)thio)-4-oxobut-2-enoate]
- inhibition at 10 µM ([10]; Fibroblast, NPC1 GM22879): ≥ 10%
- inhibition at 10 µM ([10]; FXN GM04078): ≥ 10%
- % Increase OPC proliferation [11]: ≥25%

SMILES: COC(=O)CCC(=O)SCCNC(=O)CCNC(=O)[C@H](O)C(C)(C)COP1(=O)OCCO1 [Compound 1308]
- % prevention of forskolin-induced cyst swelling ([1]; 10 uM): ≥10%
- inhibition at 10 µM (HepG2 cells [12]): > 50%
- activation at 50 µM (HepG2 cells [13]): > 5%
